Experimental findings from patent US20190136321A1, “USE OF TRANSLATIONAL PROFILING TO IDENTIFY TARGET MOLECULES FOR THERAPEUTIC TREATMENT” (The Regents of The University of California, priority 2013, published 2019) are described below.

Type in all cases: cell-based, human
One assay deals with PC3 cells. The assay can be described thus: Polysome analysis. The conditions noted are these: 100 nM, 3-hour. As to the method: Cells were re-suspended in PBS containing 100 μg ml^−1 cycloheximide (Sigma) and incubated on ice for 10 min. Cells were centrifuged at 300 g for 5 min at 4° C. and lysed in 10 mM Tris-HCl pH 8, 140 mM NaCl, 5 mM MgCl2, 640 U ml^−1 Rnasin, 0.05% NP-40, 250 μg ml^−1 cycloheximide, 20 mM DTT, and protease inhibitors. Samples were incubated for 20 min on ice, then centrifuged once for 5 min at 3,300 g and once for 5 min at 9,300 g, isolating the supernatant after each centrifugation. Lysates were loaded onto 10-50% sucrose gradients containing 0.1 mg ml^−1 heparin and 2 mM DTT and centrifuged at 37,000 r.p.m. for 2.5 hr at 4° C. The sample was subsequently fractionated on a gradient fractionation system (ISCO). RNA was extracted from all fractions and run on a TBE-agarose gel to visualize 18S and 28S rRNA.

For another assay, the system named is GFP-labeled PC3 cells. The assay can be described thus: Real-time imaging of cell migration. The settings on record: starting at 6 hr of treatment. As to the method:
Real-time imaging of GFP-labeled PC3 cells was performed in poly-D-lysine-coated chamber cover glass slides (Lab-Tek). PC3 GFP cells were plated and allowed to adhere for 24 hr. Wells were wounded with a P200 pipette tip. The chamber slides were imaged with an IX81 Olympus wide-field fluorescence microscope equipped with a CO2- and temperature-controlled chamber and time-lapse tracking system. Images from DIC and GFP channels were taken every 2 min and processed using ImageJ and analyzed for cell migration with Manual Tracking, using local maximum centering correction to maintain a centroid xy coordinate for each cell per frame over time. Tracking data was subsequently processed with the Chemotaxis and Migration tool from ibidi to create xy coordinate plots, velocity, and distance measurements.

The test system of assay [1] is MDA-MB-361, SKOV3 and ACHN cells. Put plainly: Western blot and qPCR of 4-gene invasion signature in metastatic cell lines. The conditions noted are these: MDA-MB-361, SKOV3, ACHN cells, 48-hour treatment, 200 nM. The protocol: (§1) Western blot analysis was performed as previously described (Hsieh et al., Cancer Cell 17:249-261 (2010)) with antibodies specific to phospho-AKT^S473 (Cell Signaling), AKT (Cell Signaling), phospho-p70S6K^T389 (Cell Signaling), phospho-rpS6^S240/244 (Cell Signaling), rpS6 (Cell Signaling), phospho-4EBP1^T37/46 (Cell Signaling), 4EBP1 (Cell Signaling), 4EBP2 (Cell Signaling), YB1 (Cell Signaling), CD44 (Cell Signaling), LEF1 (Cell Signaling), PTEN (Cell Signaling), eEF2 (Cell Signaling), GAPDH (Cell Signaling), vimentin (BD Biosciences), eIF4E (BD Biosciences), Flag (Sigma), β-actin (Sigma), MTA1 (Santa Cruz Biotechnology), Twist (Santa Cruz Biotechnology), rpL28 (Santa Cruz Biotechnology), HA (Covance) and rictor (Bethyl Laboratory).
RNA was isolated using the manufacturer's protocol for RNA extraction with TRIzol Reagent (Invitrogen) using the Pure Link RNA mini kit (Invitrogen). RNA was DNase-treated with Pure Link Dnase (Invitrogen). DNase-treated RNA was transcribed to cDNA with SuperScript III First-Strand Synthesis System for RT-PCR (Invitrogen), and 1 μl of cDNA was used to run a SYBR green detection qPCR assay (SYBR Green Supermix and MyiQ2, Biorad). Primers were used at 200 nM.

For a further assay, the system named is Snail1, LEF1 and Twist1. The assay can be described thus: Snail1 immunocytochemistry, LEF1/Twist1 Western blot and qPCR (YB1 target genes). The settings on record: PC3 cells, 200 nM. As to the method:
as §1
RNA was isolated using the manufacturer's protocol for RNA extraction with TRIzol Reagent (Invitrogen) using the Pure Link RNA mini kit (Invitrogen). RNA was DNase-treated with Pure Link Dnase (Invitrogen). DNase-treated RNA was transcribed to cDNA with SuperScript III First-Strand Synthesis System for RT-PCR (Invitrogen), and 1 μl of cDNA was used to run a SYBR green detection qPCR assay (SYBR Green Supermix and MyiQ2, Biorad). […]
Appropriately transfected or treated PC3 cells were plated on a poly-L-lysine-coated chamber slide (Lab-Tek) and cultured for 48 hr. […] Image capture and quantification were completed as described below (see “Immunofluorescence”).
(In general: Immunoblotting shows a protein as a band on a membrane.)

Turning to `CC(C)n1nc(-c2ccc3oc(N)nc3c2)c2c(N)ncnc21` [ATP site inhibitor of mTOR], in the assay with PC3 cells, the “association of YB1 and rpS19 mRNAs in polysome fractions” value was “differential association”; the “β-actin mRNA association in polysome fractions” value was “no change”. Also, the cancer cell migration result with GFP-labeled PC3 cells is on record as “inhibited”. Further, the “4-gene invasion signature response in metastatic cell lines” value in assay [1] was “responsive”. Besides, in the assay on Snail1, LEF1 and Twist1, the “protein levels but not mRNA levels of YB1 target genes (Snail1, LEF1, Twist1)” value is “decreases”.
